# Source: patent US11814392B2, “Chromenopyridine-based compounds and methods of making and use thereof” (Rosalind Franklin University of Medicine and Science, priority 2020, dated 2023)
# What was measured:
# RPMI-8226 = assay: NCI 60 five-dose screening, RPMI-8226
# Experimental: (§1) The National Cancer Institute's Developmental Therapeutic preclinical 60 human cancer cell lines were used for an in vitro screen. […] The one-dose and five-dose experiments were conducted according to standard NCI protocols.
# (§2) The human tumor cell lines of the cancer screening panel are grown in RPMI 1640 medium containing 5% fetal bovine serum and 2 mM L-glutamine. For a typical screening experiment, cells are inoculated into 96 well microtiter plates in 100 μL at plating densities ranging from 5,000 to 40,000 cells/well depending on the doubling time of individual cell lines. After cell inoculation, the microtiter plates are incubated at 37° C., 5% CO2, 95% air and 100% relative humidity for 24 h prior to addition of experimental drugs.
# (§3) After 24 h, two plates of each cell line are fixed in situ with TCA, to represent a measurement of the cell population for each cell line at the time of drug addition (Tz). […]
# (§4) Following drug addition, the plates are incubated for an additional 48 h at 37° C., 5% CO2, 95% air, and 100% relative humidity. […] Bound stain is subsequently solubilized with 10 mM trizma base, and the absorbance is read on an automated plate reader at a wavelength of 515 nm. […] Using the seven absorbance measurements [time zero, (Tz), control growth, (C), and test growth in the presence of drug at the five concentration levels (Ti)], the percentage growth is calculated at each of the drug concentrations levels. Percentage growth inhibition is calculated as: [(Ti−Tz)/(C−Tz)]×100 for concentrations for which Ti>/=Tz [(Ti−Tz)/Tz]×100 for concentrations for which Ti<Tz.
# (§5) Three dose response parameters are calculated for each experimental agent. […] The drug concentration resulting in total growth inhibition (TGI) is calculated from Ti=Tz. […] Values are calculated for each of these three parameters if the level of activity is reached; however, if the effect is not reached or is exceeded, the value for that parameter is expressed as greater or less than the maximum or minimum concentration tested.
# HCC-2998 = assay: NCI 60 five-dose screening, HCC-2998
# Experimental: as §1, §2, §3, §4, §5
# SF-268 = assay: NCI 60 five-dose screening, SF-268
# Experimental: as §1, §2, §3, §4, §5
# [1] = test system: 60 human cancer cell lines; assay: NCI 60 cell line assay, panel summary; assay type: cell-based; conditions: for GI50: Homo sapiens, 60 cell
# PC-3 = assay: NCI 60 five-dose screening, PC-3
# Experimental: as §1, §2, §3, §4, §5
# SF-295 = assay: NCI 60 five-dose screening, SF-295
# Experimental: as §1, §2, §3, §4, §5
# KM12 = assay: NCI 60 five-dose screening, KM12
# Experimental: as §1, §2, §3, §4, §5
# CCRF-CEM = assay: NCI 60 five-dose screening, CCRF-CEM; conditions: Homo sapiens, 48 h
# Experimental: as §1
# The human tumor cell lines of the cancer screening panel are grown in RPMI 1640 medium containing 5% fetal bovine serum and 2 mM L-glutamine. For a typical screening experiment, cells are inoculated into 96 well microtiter plates in 100 μL at plating densities ranging from 5,000 to 40,000 cells/well depending on the doubling time of individual cell lines. […]
# as §4
# Three dose response parameters are calculated for each experimental agent. […]
# NCI-H522 = assay: NCI 60 five-dose screening, NCI-H522
# Experimental: as §1, §2, §3, §4, §5
# A498 = assay: NCI 60 five-dose screening, A498
# Experimental: The one-dose and five-dose experiments were conducted according to standard NCI protocols.
# as §2
# After 24 h, two plates of each cell line are fixed in situ with TCA, to represent a measurement of the cell population for each cell line at the time of drug addition (Tz). Experimental drugs are solubilized in dimethyl sulfoxide at 400-fold the desired final maximum test concentration and stored frozen prior to use. […]
# as §4, §5
# MDA-MB-231/ATCC = assay: NCI 60 five-dose screening, MDA-MB-231/ATCC
# Experimental: as §1, §2, §3, §4, §5
# HCT-116 = assay: NCI 60 five-dose screening, HCT-116
# Experimental: as §1, §2, §3, §4, §5
# HL-60 (TB) = assay: NCI 60 five-dose screening, HL-60 (TB); assay type: cell-based, human; conditions: HL-60 (TB) (Leukemia), 48 h
# PMCT = biological target: T1, PMCT (Homo sapiens, UniProt Q86YT5); assay: PMCT inhibition, citrate transport assay of whole HEK293T cells; assay type: cell-based
# T1 construct: expressed in transfected cells; host or cells: HEK293T cells transfected with pcDNA3.1(+)-SLC13A5 using PEI
# T1 sequence (Q86YT5 whole entry): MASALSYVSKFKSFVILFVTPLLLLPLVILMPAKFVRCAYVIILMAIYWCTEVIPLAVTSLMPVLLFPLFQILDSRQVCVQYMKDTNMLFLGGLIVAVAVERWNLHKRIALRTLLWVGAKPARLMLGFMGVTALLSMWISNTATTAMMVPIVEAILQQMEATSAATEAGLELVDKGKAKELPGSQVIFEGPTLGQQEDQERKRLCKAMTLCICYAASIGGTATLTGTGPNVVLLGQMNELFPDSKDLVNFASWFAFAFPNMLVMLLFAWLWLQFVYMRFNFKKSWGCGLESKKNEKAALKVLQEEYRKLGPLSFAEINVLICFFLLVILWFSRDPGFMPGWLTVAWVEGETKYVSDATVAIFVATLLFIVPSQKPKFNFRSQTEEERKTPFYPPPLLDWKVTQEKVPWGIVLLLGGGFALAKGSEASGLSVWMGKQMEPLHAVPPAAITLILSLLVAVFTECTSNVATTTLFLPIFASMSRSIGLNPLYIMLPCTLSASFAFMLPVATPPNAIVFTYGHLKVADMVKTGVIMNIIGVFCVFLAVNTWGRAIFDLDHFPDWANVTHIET
# DU-145 = assay: NCI 60 five-dose screening, DU-145
# Experimental: as §1, §2, §3, §4, §5
# UACC-257 = assay: NCI 60 five-dose screening, UACC-257
# Experimental: as §1, §2, §3, §4, §5
# MCF7 = assay: NCI 60 five-dose screening, MCF7
# Experimental: as §1, §2, §3, §4, §5
# HT29 = assay: NCI 60 five-dose screening, HT29
# Experimental: as §1, §2, §3, §4, §5
# MDA-MB-468 = assay: NCI 60 five-dose screening, MDA-MB-468; assay type: cell-based, human
# LOX IMVI = assay: NCI 60 five-dose screening, LOX IMVI; conditions: 48 h
# Experimental: as §1, §2, §3, §4, §5
# NCI/ADR-RES = assay: NCI 60 five-dose screening, NCI/ADR-RES; assay type: cell-based, human; conditions: NCI/ADR-RES (Ovarian Cancer), 48 h
# TK-10 = assay: NCI 60 five-dose screening, TK-10
# Experimental: as §1, §2, §3, §4, §5
# MDA-MB-435 = assay: NCI 60 five-dose screening, MDA-MB-435
# Experimental: as §1, §2, §3, §4, §5
# SN12C = assay: NCI 60 five-dose screening, SN12C; assay type: cell-based, human; conditions: SN12C (Renal Cancer), 48 h
# HS578T = assay: NCI 60 five-dose screening, HS578T; assay type: cell-based, human; conditions: HS578T (Breast Cancer), 48 h
smiles,measurement,setting,value
"COc1ccc(SC2c3cc(OC)c(OC)cc3Oc3nc(N)c(C#N)c(N)c32)cc1 (centres unmarked) [Compound 1, 2,4-diamino-7,8-dimethoxy-5-((4-methoxyphenyl)thio)-5H-chromeno[2,3-b]pyridine-3-carbonitrile]",GI50,"RPMI-8226; Homo sapiens, RPMI-8226, 48 h",350 nM
same,CC50,"RPMI-8226; Homo sapiens, RPMI-8226, 48 h, read-out: LC50",> 100000 nM
same,TGI,"RPMI-8226; RPMI-8226 (Leukemia), five-dose, 48 h",1810 nM
same,TGI,"HCC-2998; HCC-2998 (Colon Cancer), five-dose, 48 h",3120 nM
same,GI50,"HCC-2998; Homo sapiens, HCC 2998, 48 h",1720 nM
same,CC50,"HCC-2998; Homo sapiens, HCC 2998, 48 h, read-out: LC50",5670 nM
same,GI50,"SF-268; Homo sapiens, SF-268, 48 h",1550 nM
same,CC50,"SF-268; Homo sapiens, SF-268, 48 h, read-out: LC50",6050 nM
same,TGI,"SF-268; SF-268 (CNS Cancer), five-dose, 48 h",3070 nM
same,GI50,"[1]; at least one studied cell line of each of leukemia, colon cancer, CNS cancer, melanoma, ovarian cancer, renal cancer, and breast cancer",< 1000 nM
same,GI50,[1]; every leukemia cell line studied,< 500 nM
same,anti-proliferative activity,"[1]; nine major cancer cell lines, initial single dose and five dose screening (FIG. 2, FIG. 3)",anti-proliferative activity
same,GI50,"PC-3; Homo sapiens, PC-3, 48 h",1160 nM
same,CC50,"PC-3; Homo sapiens, PC-3, 48 h, read-out: LC50",5370 nM
same,TGI,"PC-3; PC-3 (Prostate Cancer), five-dose, 48 h",2490 nM
same,GI50,"SF-295; Homo sapiens, SF-295, 48 h",1600 nM
same,CC50,"SF-295; Homo sapiens, SF-295, 48 h, read-out: LC50",5480 nM
same,TGI,"SF-295; SF-295 (CNS Cancer), five-dose, 48 h",2960 nM
same,GI50,"KM12; Homo sapiens, KM12, 48 h",1530 nM
same,CC50,"KM12; Homo sapiens, KM12, 48 h, read-out: LC50",6060 nM
same,TGI,"KM12; KM12 (Colon Cancer), five-dose, 48 h",3050 nM
same,GI50,CCRF-CEM,310 nM
same,CC50,CCRF-CEM; read-out: LC50,> 100000 nM
same,GI50,"NCI-H522; Homo sapiens, NCI-H522, 48 h",1370 nM
same,CC50,"NCI-H522; Homo sapiens, NCI-H522, 48 h, read-out: LC50",5600 nM
same,TGI,"NCI-H522; NCI-H522 (Non-small cell Lung), five-dose, 48 h",2770 nM
same,TGI,"A498; A498 (Renal Cancer), five-dose, 48 h",2850 nM
same,GI50,"A498; Homo sapiens, A498, 48 h",1420 nM
same,CC50,"A498; Homo sapiens, A498, 48 h, read-out: LC50",5730 nM
same,GI50,"MDA-MB-231/ATCC; Homo sapiens, MDA-MB-231, 48 h",1430 nM
same,CC50,"MDA-MB-231/ATCC; Homo sapiens, MDA-MB-231, 48 h, read-out: LC50",5510 nM
same,TGI,"MDA-MB-231/ATCC; MDA-MB-231/ATCC (Breast Cancer), five-dose, 48 h",2810 nM
same,TGI,"HCT-116; HCT-116 (Colon Cancer), five-dose, 48 h",2160 nM
same,GI50,"HCT-116; Homo sapiens, HCT-116, 48 h",680 nM
same,CC50,"HCT-116; Homo sapiens, HCT-116, 48 h, read-out: LC50",5340 nM
same,TGI,HL-60 (TB),1270 nM
same,GI50,HL-60 (TB); Homo sapiens,340 nM
same,IC50,PMCT; HEK293T cells,9800 nM
same,dose-dependence of PMCT inhibition,"PMCT; HEK293T cells, even at moderate concentrations (FIG. 1)",dose-dependent inhibition
same,inhibition at 5 µM,"PMCT; HEK-293T, read-out: PMCT Inhibition, Inhibitor Concentration 5 μM, HEK293T cells",50.1%
same,inhibition at 20 µM,"PMCT; HEK-293T, read-out: PMCT Inhibition, Inhibitor Concentration 20 μM, HEK293T cells",75.6%
same,inhibition at 40 µM,"PMCT; HEK-293T, read-out: PMCT Inhibition, Inhibitor Concentration 40 μM, HEK293T cells",50.2%
same,inhibition at 200 µM,"PMCT; HEK-293T, read-out: PMCT Inhibition, Inhibitor Concentration 200 μM, HEK293T cells",32.1%
same,inhibition at 1000 µM,"PMCT; HEK-293T, read-out: PMCT Inhibition, Inhibitor Concentration 1000 μM, HEK293T cells",62.8%
same,TGI,"DU-145; DU-145 (Prostate Cancer), five-dose, 48 h",3110 nM
same,GI50,"DU-145; Homo sapiens, DU-145, 48 h",1730 nM
same,CC50,"DU-145; Homo sapiens, DU-145, 48 h, read-out: LC50",5590 nM
same,GI50,"UACC-257; Homo sapiens, UACC-257, 48 h",1870 nM
same,CC50,"UACC-257; Homo sapiens, UACC-257, 48 h, read-out: LC50",5900 nM
same,TGI,"UACC-257; UACC-257 (Melanoma), five-dose, 48 h",3320 nM
same,GI50,"MCF7; Homo sapiens, MCF7, 48 h",450 nM
same,CC50,"MCF7; Homo sapiens, MCF7, 48 h, read-out: LC50",8470 nM
same,TGI,"MCF7; MCF7 (Breast Cancer), five-dose, 48 h",2100 nM
same,TGI,"HT29; HT29 (Colon Cancer), five-dose, 48 h",5040 nM
same,GI50,"HT29; Homo sapiens, HT-29, 48 h",2160 nM
same,CC50,"HT29; Homo sapiens, HT-29, 48 h, read-out: LC50",> 100000 nM
same,CC50,"MDA-MB-468; Homo sapiens, MDA-MB-468, 48 h, read-out: LC50",5620 nM
same,GI50,"MDA-MB-468; Homo sapiens, MDA-MB-468 (Breast Cancer), five-dose, 48 h",320 nM
same,TGI,"MDA-MB-468; MDA-MB-468 (Breast Cancer), five-dose, 48 h",1530 nM
same,GI50,"LOX IMVI; Homo sapiens, LOX IMVI",580 nM
same,CC50,"LOX IMVI; Homo sapiens, LOX IMVI, read-out: LC50",4370 nM
same,TGI,"LOX IMVI; LOX IMVI (Melanoma), five-dose",1860 nM
same,GI50,NCI/ADR-RES; Homo sapiens,1790 nM
same,TGI,NCI/ADR-RES,3690 nM
same,GI50,"TK-10; Homo sapiens, TK-10, 48 h",1630 nM
same,CC50,"TK-10; Homo sapiens, TK-10, 48 h, read-out: LC50",5550 nM
same,TGI,"TK-10; TK-10 (Renal Cancer), five-dose, 48 h",3010 nM
same,GI50,"MDA-MB-435; Homo sapiens, MDA-MB-435, 48 h",1500 nM
same,CC50,"MDA-MB-435; Homo sapiens, MDA-MB-435, 48 h, read-out: LC50",5700 nM
same,TGI,"MDA-MB-435; MDA-MB-435 (Melanoma), five-dose, 48 h",2920 nM
same,GI50,SN12C; Homo sapiens,1060 nM
same,TGI,SN12C,2490 nM
same,TGI,HS578T,4160 nM
same,GI50,"HS578T; Homo sapiens, Hs-578T",1800 nM
